Experiment [1] relates to gram-positive and gram-negative bacteria. The following applies: known penicillins and N-acyl ampicillins; cited from earlier work.
A further experiment deals with Pseudomonas. As to conditions: known penicillins and N-acyl ampicillins; cited from earlier work.
Experiment [2] concerns Staphylococcus aureus 209P. The experiment in a line: minimal inhibitory concentration, agar dilution method. It is filed as cell-based. The text has this:
(§1) When determined according to the agar dilution method, the penicillins (I) afford the minimal inhibitory concentrations against test microorganisms as shown in Table 2.
On the technique in general: In agar dilution the substance is mixed into plates at graded concentrations.

In the next experiment the test system is Escherichia coli NIHJ. The experiment is described as above. Format: cell-based.
Excerpt: as §1

The test system of experiment [3] is Pseudomonas aeruginosa 104. The description is as above. Format: cell-based.
Excerpt: as §1

Another experiment has as its system Proteus vulgaris HV19. The description is as above. It is filed as cell-based.
In another experiment the test system is Proteus miravilis GN2425. Described as above. It is filed as cell-based.

≈ marks a conversion by molar mass, not a printed value.

As for “6-(α-amino-isothiazolylacetamido)penicillanic acid”, in experiment [1], the “growth inhibition / antimicrobial activity against gram-positive and gram-negative bacteria” value is “inhibit the growth of various gram-positive and gram-negative bacteria”. Moreover, in the experiment on Pseudomonas, the “antimicrobial activity against Pseudomonas” value is on record as “do not exert any appreciable antimicrobial activity against Pseudomonas”.

On to “6-(α-amino-thienylacetamido)penicillanic acid”, for which the “growth inhibition / antimicrobial activity against gram-positive and gram-negative bacteria” value in experiment [1] was “inhibit the growth of various gram-positive and gram-negative bacteria”. Further, the “antimicrobial activity against Pseudomonas” value with Pseudomonas is recorded as “do not exert any appreciable antimicrobial activity against Pseudomonas”.

As a reminder, the MIC is the least concentration at which growth counts as inhibited. Low readings indicate a more susceptible organism, high ones a less susceptible organism. As for `CC1(C)S[C@@H]2C(NC(=O)C(N)c3ccccc3)C(=O)N2[C@H]1C(=O)O` (stereo partly drawn) [Ampicillin, 6-(α-amino-phenylacetamido)penicillanic acid, reference compound], the MIC in experiment [2] is 0.1 µg/mL (≈ 0.286 µM); in the experiment on Escherichia coli NIHJ it was 6.26 µg/mL (≈ 17.9 µM). Moreover, in experiment [1], the “growth inhibition / antimicrobial activity against gram-positive and gram-negative bacteria” value was “inhibit the growth of various gram-positive and gram-negative bacteria”.

As to `CC1(C)S[C@@H]2[C@H](NC(=O)C3(N)CCCCC3)C(=O)N2[C@H]1C(=O)O` [Cyclacillin, 6-(1-amino-cyclohexane)carboxamidopenicillanic acid], in experiment [1], the “growth inhibition / antimicrobial activity against gram-positive and gram-negative bacteria” value was “inhibit the growth of various gram-positive and gram-negative bacteria”. In the experiment on Pseudomonas, the “antimicrobial activity against Pseudomonas” value is reported as “do not exert any appreciable antimicrobial activity against Pseudomonas”.

For the molecule `CC1(C)S[C@@H]2[C@H](NC(=O)[C@H](NC(=O)c3cc4ccccc4nc3O)c3ccc(O)cc3)C(=O)N2[C@H]1C(=O)O` [Example 27], the MIC in experiment [2] was determined as 0.78 µg/mL (≈ 1.45 µM); in experiment [3] it was 6.25 µg/mL (≈ 11.6 µM); against Escherichia coli NIHJ, 6.25 µg/mL (≈ 11.6 µM); against Proteus vulgaris HV19, 0.2 µg/mL (≈ 0.373 µM); against Proteus miravilis GN2425, 3.13 µg/mL (≈ 5.83 µM).

For `COc1nc(OC)c2c(O)c(C(=O)N[C@@H](C(=O)N[C@@H]3C(=O)N4[C@@H]3SC(C)(C)[C@@H]4C(=O)O)c3ccc(O)cc3)cnc2n1` [Example 28], the minimum inhibitory concentration (MIC) in experiment [2] was 0.78 µg/mL (≈ 1.3 µM); in experiment [3], 3.13 µg/mL (≈ 5.23 µM); in the experiment with Escherichia coli NIHJ, 3.13 µg/mL (≈ 5.23 µM); with Proteus vulgaris HV19, 0.05 µg/mL (≈ 0.0835 µM); in the experiment with Proteus miravilis GN2425, 3.13 µg/mL (≈ 5.23 µM).

With `CC1(C)S[C@@H]2[C@H](NC(=O)[C@H](NC(=O)c3cnc4ccncc4c3O)c3ccc(O)cc3)C(=O)N2[C@H]1C(=O)O` [Example 29], the MIC is 0.78 µg/mL (≈ 1.45 µM) in experiment [2]; 6.25 µg/mL (≈ 11.6 µM) in experiment [3]; 12.5 µg/mL (≈ 23.3 µM) with Escherichia coli NIHJ; 0.2 µg/mL (≈ 0.372 µM) in the experiment on Proteus vulgaris HV19; 12.5 µg/mL (≈ 23.3 µM) against Proteus miravilis GN2425.

With `CC(C)COC(=O)Oc1ccc([C@@H](NC(=O)c2cnc3nc(N(C)C)ncc3c2O)C(=O)N[C@@H]2C(=O)N3[C@@H]2SC(C)(C)[C@@H]3C(=O)O)cc1` [Example 30], the MIC turned out to be 0.78 µg/mL (≈ 1.14 µM) in experiment [2]; 6.25 µg/mL (≈ 9.17 µM) in experiment [3]; 6.25 µg/mL (≈ 9.17 µM) with Escherichia coli NIHJ; 0.05 µg/mL (≈ 0.0733 µM) against Proteus vulgaris HV19; 3.13 µg/mL (≈ 4.59 µM) in the experiment with Proteus miravilis GN2425.

`Cc1nc(C)c2c(O)c(C(=O)N[C@@H](C(=O)N[C@@H]3C(=O)N4[C@@H]3SC(C)(C)[C@@H]4C(=O)O)c3ccc(O)cc3)cnc2n1` [Example 31]: the minimum inhibitory concentration (MIC) in experiment [2] is 0.78 µg/mL (≈ 1.38 µM); in experiment [3], 3.13 µg/mL (≈ 5.52 µM); against Escherichia coli NIHJ it was 3.13 µg/mL (≈ 5.52 µM); against Proteus vulgaris HV19, 0.1 µg/mL (≈ 0.176 µM); with Proteus miravilis GN2425, 3.13 µg/mL (≈ 5.52 µM).

Regarding `CC1(C)S[C@@H]2[C@H](NC(=O)[C@H](NC(=O)c3cnc4cccnc4c3O)c3ccc(O)c(Cl)c3)C(=O)N2[C@H]1C(=O)O` [Example 32], the MIC worked out at 0.78 µg/mL (≈ 1.36 µM) in experiment [2]; 3.13 µg/mL (≈ 5.47 µM) in experiment [3]; 3.13 µg/mL (≈ 5.47 µM) in the experiment with Escherichia coli NIHJ; 0.05 µg/mL (≈ 0.0874 µM) in the experiment on Proteus vulgaris HV19; 6.25 µg/mL (≈ 10.9 µM) in the experiment with Proteus miravilis GN2425.

As for `CCOC(=O)Oc1ccc([C@@H](NC(=O)c2cnc3cn[nH]c3c2O)C(=O)N[C@@H]2C(=O)N3[C@@H]2SC(C)(C)[C@@H]3C(=O)O)cc1` [Example 33], the MIC in experiment [2] is 0.78 µg/mL (≈ 1.3 µM); in experiment [3], 6.25 µg/mL (≈ 10.4 µM); in the experiment with Escherichia coli NIHJ it was 3.13 µg/mL (≈ 5.23 µM); in the experiment with Proteus vulgaris HV19, 0.1 µg/mL (≈ 0.167 µM); against Proteus miravilis GN2425, 3.13 µg/mL (≈ 5.23 µM).

As for `CC1(C)S[C@@H]2[C@H](NC(=O)[C@H](NC(=O)c3cnc4cncnc4c3O)c3ccc(O)cc3)C(=O)N2[C@H]1C(=O)O` [Example 34], the MIC was 0.78 µg/mL (≈ 1.45 µM) in experiment [2]; 1.56 µg/mL (≈ 2.9 µM) in experiment [3]; 1.56 µg/mL (≈ 2.9 µM) in the experiment on Escherichia coli NIHJ; 0.05 µg/mL (≈ 0.0928 µM) in the experiment on Proteus vulgaris HV19; 1.56 µg/mL (≈ 2.9 µM) with Proteus miravilis GN2425.

Take `Cc1nc(C)c2ncc(C(=O)N[C@@H](C(=O)N[C@@H]3C(=O)N4[C@@H]3SC(C)(C)[C@@H]4C(=O)O)c3ccc(O)cc3)c(O)c2n1` [Example 35]: the MIC in experiment [2] was determined as 0.78 µg/mL (≈ 1.38 µM); in experiment [3], 1.56 µg/mL (≈ 2.75 µM); with Escherichia coli NIHJ, 1.56 µg/mL (≈ 2.75 µM); against Proteus vulgaris HV19 it was 0.025 µg/mL (≈ 0.0441 µM); in the experiment with Proteus miravilis GN2425, 1.56 µg/mL (≈ 2.75 µM).

As to `CCOC(=O)Oc1ccc([C@@H](NC(=O)c2cnc3c(OC)nc(OC)nc3c2O)C(=O)N[C@@H]2C(=O)N3[C@@H]2SC(C)(C)[C@@H]3C(=O)O)cc1` [Example 36], the MIC in experiment [2] came to 0.78 µg/mL (≈ 1.16 µM); in experiment [3], 3.13 µg/mL (≈ 4.67 µM); with Escherichia coli NIHJ, 3.13 µg/mL (≈ 4.67 µM); in the experiment with Proteus vulgaris HV19, 0.05 µg/mL (≈ 0.0746 µM); against Proteus miravilis GN2425, 3.13 µg/mL (≈ 4.67 µM).

`CCOC(=O)Oc1ccc([C@@H](NC(=O)c2cnc3cccnc3c2OC(=O)OCC)C(=O)N[C@@H]2C(=O)N3[C@@H]2SC(C)(C)[C@@H]3C(=O)O)cc1` [Example 37]: the MIC in experiment [2] amounted to 0.78 µg/mL (≈ 1.14 µM); in experiment [3], 1.56 µg/mL (≈ 2.29 µM); against Escherichia coli NIHJ, 1.56 µg/mL (≈ 2.29 µM); in the experiment with Proteus vulgaris HV19 it was 0.025 µg/mL (≈ 0.0367 µM); in the experiment with Proteus miravilis GN2425, 1.56 µg/mL (≈ 2.29 µM).

On to `CCOC(=O)Oc1ccc([C@@H](NC(=O)c2cnc3cccnc3c2S)C(=O)N[C@@H]2C(=O)N3[C@@H]2SC(C)(C)[C@@H]3C(=O)O)cc1` [Example 39], for which the MIC in experiment [2] is 0.78 µg/mL (≈ 1.25 µM); in experiment [3], 1.56 µg/mL (≈ 2.49 µM); with Escherichia coli NIHJ, 1.56 µg/mL (≈ 2.49 µM); against Proteus vulgaris HV19, 0.05 µg/mL (≈ 0.0799 µM); in the experiment on Proteus miravilis GN2425, 1.56 µg/mL (≈ 2.49 µM).

As to `CC1(C)S[C@@H]2[C@H](NC(=O)C(NC(=O)c3cnc4cccnc4c3S)c3cc(Cl)c(O)c(Cl)c3)C(=O)N2[C@H]1C(=O)O` (some centres unmarked) [Example 40], the MIC in experiment [2] was 1.56 µg/mL (≈ 2.51 µM); in experiment [3], 6.25 µg/mL (≈ 10 µM); against Escherichia coli NIHJ, 12.5 µg/mL (≈ 20.1 µM); against Proteus vulgaris HV19, 0.2 µg/mL (≈ 0.321 µM); in the experiment on Proteus miravilis GN2425 it was 6.25 µg/mL (≈ 10 µM).

In the case of `COc1cnc2c(O)c(C(=O)N[C@@H](C(=O)N[C@@H]3C(=O)N4[C@@H]3SC(C)(C)[C@@H]4C(=O)O)c3ccc(O)cc3)cnc2n1` [Example 41], the MIC in experiment [2] turned out to be 1.56 µg/mL (≈ 2.74 µM); in experiment [3] it was 3.13 µg/mL (≈ 5.51 µM); against Escherichia coli NIHJ, 6.25 µg/mL (≈ 11 µM); with Proteus vulgaris HV19, 0.2 µg/mL (≈ 0.352 µM); in the experiment on Proteus miravilis GN2425, 6.25 µg/mL (≈ 11 µM).

On to `CCOC(=O)Oc1ccc([C@@H](NC(=O)c2cnc3scnc3c2O)C(=O)N[C@@H]2C(=O)N3[C@@H]2SC(C)(C)[C@@H]3C(=O)O)cc1` [Example 42], for which the MIC came to 0.78 µg/mL (≈ 1.27 µM) in experiment [2]; 6.25 µg/mL (≈ 10.2 µM) in experiment [3]; 3.13 µg/mL (≈ 5.08 µM) with Escherichia coli NIHJ; 0.2 µg/mL (≈ 0.325 µM) against Proteus vulgaris HV19; 6.25 µg/mL (≈ 10.2 µM) against Proteus miravilis GN2425.

With `CC1(C)S[C@@H]2[C@H](NC(=O)[C@H](NC(=O)c3cnc4cccnc4c3S)c3ccc(O)cc3)C(=O)N2[C@H]1C(=O)O` [Example 43], the MIC in experiment [2] was 0.78 µg/mL (≈ 1.41 µM); in experiment [3], 1.56 µg/mL (≈ 2.82 µM); in the experiment on Escherichia coli NIHJ, 1.56 µg/mL (≈ 2.82 µM); in the experiment on Proteus vulgaris HV19, 0.025 µg/mL (≈ 0.0452 µM); in the experiment with Proteus miravilis GN2425, 1.56 µg/mL (≈ 2.82 µM).

The record behind these values is patent US3954733A, “Naphthyridine-3-carboxamido-benzylpenicillins and salts thereof” (Sumitomo Chemical Company, Limited, priority 1973, dated 1976).
